{
  "source": "patent US8883183B2",
  "about": "“Medical devices incorporating collagen inhibitors” (Wake Forest University Health Sciences, priority 2008, dated 2014)",
  "key": {"[1]": {"test_system": "paranasal sinus wounds", "experiment": "Rat model of paranasal sinus surgery, HF-coated cellulose pack", "format": "in vivo", "conditions": "topical administration", "experimental": "Topical application of a halofuginone/cellulose derivative packing was tested for the prevention of scar tissue formation in the paranasal sinuses of a rat. The paired, anatomically identical paranasal sinuses of the rat allow one side to serve as a control and the other to serve as experimental. The control sinus was packed with an uncoated cellulose derivative packing material (Merocel). The other (experimental) sinus cavity was packed with a halofuginone bromide coated cellulose derivative compound packing material. A second set of animals underwent paranasal sinus surgery and no packing material of any kind was placed. Both packing preparations provide adequate homeostasis and require removal, as in the human clinical scenario. The surgical wound was closed using absorbable subcuticular sutures. Sinus surgery was performed in the rat and packs placed for 5 days. Sinus specimens were harvested and analyzed.\nIn vivo elution studies were performed on packs removed 5 days post-operatively, placed in 10 mL PBS for 8 hrs, and 300 uL aliquot placed in spectrophotometer (blanked with a control pack removed post-operatively)."}, "[2]": {"test_system": "full thickness dermal incisions", "experiment": "Rat dorsal full thickness dermal incision wound healing model", "format": "in vivo", "from_the_text": "A total of nine animals underwent surgery: three controls and six treatment animals. On each control animal four full thickness dermal incisions were made on the dorsum. The two anterior incisions were closed with uncoated 3-0 Vicryl and N-butyl-2-cyanoacrylate glue; the posterior incisions were closed with Vicryl alone. In the experimental animals four full thickness wounds were made on the dorsum; the two anterior incisions were closed uncoated Vicryl and a mixture of HF—Br and N-butyl-2-cyanoacrylate (0.5 cc of HF—Br was added to 0.5 cc of N-butyl cyanoacrylate glue) was applied topically to the closed wound. The two posterior wounds were closed with HF—Br coated 3-0 Vicryl. Two treatment animals and one control animal were then euthanized at 2, 6, and 12 weeks and soft tissue specimens were taken for analysis.\nSoft tissue samples were harvested, embedded in paraffin and sectioned (5 μm). Sections were stained with Hematoxylin and Eosin (H&E) and Masson's Trichrome. Inflammation scores were recorded according to the method of Storch (Surgical Infections. 2002; 3: 89-98). The area of scar tissue deposition was approximated and calculated with light microscopy and a Zeiss™ digital image capture software system.\nTo evaluate levels of newly formed collagen, tissue samples were digested in 1M NaCl in 0.05M Tris. Salt soluble collagen was then bound with a Sircol™ dye detection system and content was measured with UV spectrophotometry at […]. Percent tissue masses of salt soluble collagen were higher in all week 2 samples.\nTensile strength of dermal wound tissue specimens is assessed by measuring the breaking point with a tensometer. Tissue specimens are harvested and analyzed immediately after animals are sacrificed. The specimens are attached to the tensometer and pressure is applied until the wound breaks. This breaking pressure is recorded as tensile strength.\nSkin samples were harvested so that the plane of the scar would be perpendicular to the direction of force applied. Samples were frozen, re-thawed, and secured by clamps in an tensometer (Instron™ Norwood, Mass.). Force was then applied until samples broke. Ultimate tensile load, percent elongation, and stiffness were then calculated for three control and three HF—Br treated samples at 2 and 12 weeks. Averages were reported. Average stiffness, ultimate tensile load, and percent elongation for all tissue samples increased from 2 to 12 weeks (FIG. 9)."}, "[3]": {"experiment": "In vitro elution of halofuginone from coated Vicryl sutures into PBS", "format": "physicochemical", "conditions": "UV spectroscopy at 243 nm", "experimental": "To determine halofuginone elution, an in vitro elution study was performed. The release of halofuginone from coated Vicryl sutures into phosphate buffered saline (PBS) was used to estimate kinetics of drug release in vivo. A 2.5 cm segment of HF—Br coated Vicryl was placed in 1.5 mL of PBS and incubated at 37° C. At 5, 15, 30, and 45 minutes and 1, 2, 4, 8, 24, 48, 72, and 96 hours the segment was transferred into a new 1.5 mL aliquot of PBS, and the amount of halofuginone from the previous aliquot was measured with UV spectrophotometry at 243 nm. Data from UV spectrophotometry indicated a rapid release of HF—Br into PBS in vitro (FIG. 3). It was approximated that 90% of the total drug mass was released in 30 minutes and that the drug was nearly eliminated in 2 hours."}, "[4]": {"test_system": "alpha 1 collagen gene expression", "experiment": "Real time qPCR of alpha 1 collagen gene expression in wound border skin", "format": "in vivo, rat", "conditions": "wounds treated topically, suture only animals", "from_the_text": "To determine alpha 1 collagen gene expression (in suture only animals), 2 mm punch biopsies of skin were taken at the border of wounds adjacent to suture material. Samples were flash frozen, pulverized, and RNA was extracted with Trizol reagent. Real time qPCR was employed to measure gene expression using rat 1-alpha-2 collagen ampliset. Relative quantities of alpha 1 collagen gene expression were normalized with expression levels of 18S and GAPDH RNA. These values were then divided by the relative quantity of alpha 1 collagen gene expression in normal skin."}},
  "data": [
    {"smiles": "O=C(CC1NCCCC1O)Cn1cnc2cc(Br)c(Cl)cc2c1=O", "note": "(centres unmarked) [HF—Br, 7-bromo-6-chloro-3-[3-(3-hydroxy-2-piperidinyl)-2-oxopropyl]-4(3H)]", "values": [
      {"measurement": "post-operative scar formation", "setting": "[1]", "value": "reduced post-operative scar formation"},
      {"measurement": "inflammation scores", "setting": "[2]; H&E, weeks 2, 6 and 12, vs controls", "value": "consistently lower"},
      {"measurement": "cross sectional areas of collagen deposition (scar)", "setting": "[2]; Masson's trichrome, vs controls", "value": "consistently smaller"},
      {"measurement": "salt soluble collagen levels", "setting": "[2]; Sircol assay, treated vs control, each time point", "value": "No significant difference"},
      {"measurement": "difference in collagen staining between treated and control", "setting": "[2]; Week 2", "value": 2.7, "unit": "fold"},
      {"measurement": "wound area approximation", "setting": "[2]; Week 2", "value": "322,107 μm^2"},
      {"measurement": "gross appearance of wounds", "setting": "[2]; later time points, vs control", "value": "No significant difference in appearance"},
      {"measurement": "stiffness, ultimate tensile load and percent elongation (tensile strength)", "setting": "[2]; rat, in vivo", "value": "No significant difference"},
      {"measurement": "gross appearance of wounds (erythema and induration)", "setting": "[2]; two weeks, vs control wounds", "value": "More erythema and induration were visible in control wounds"},
      {"measurement": "release of HF—Br into PBS in vitro", "setting": "[3]", "value": "rapid drug release"},
      {"measurement": "1-alpha-2 collagen gene expression", "setting": "[4]", "value": "inhibited"}
    ]}
  ]
}
